The values below come from article PMC11290450, “Isocyanides inhibit bacterial pathogens by covalent targeting of essential metabolic enzymes” (Chemical Science, 2024).

Structures are written as SMILES. Values after ≈ are worked out from the molar mass of the structure shown. Where only a bound is given, the exact number is not on record here.

Data set [1] concerns the target T1, glutamine–fructose-6-phosphate aminotransferase (GlmS) (Staphylococcus aureus, UniProt Q2FWA0).
T1 construct: recombinant wild-type GlmS
Briefly: GDH-coupled glutaminase assay; intact protein MS (+[…] Da, truncated adduct); competitive gel-based IA-alkyne labeling; isoDTB-ABPP. Format: biochemical.

The target in data set [2] is T2, cytochrome P450 3A4 (Homo sapiens, UniProt P08684).
T2 construct: gene CYP3A4
T2 sequence (P08684 2-503): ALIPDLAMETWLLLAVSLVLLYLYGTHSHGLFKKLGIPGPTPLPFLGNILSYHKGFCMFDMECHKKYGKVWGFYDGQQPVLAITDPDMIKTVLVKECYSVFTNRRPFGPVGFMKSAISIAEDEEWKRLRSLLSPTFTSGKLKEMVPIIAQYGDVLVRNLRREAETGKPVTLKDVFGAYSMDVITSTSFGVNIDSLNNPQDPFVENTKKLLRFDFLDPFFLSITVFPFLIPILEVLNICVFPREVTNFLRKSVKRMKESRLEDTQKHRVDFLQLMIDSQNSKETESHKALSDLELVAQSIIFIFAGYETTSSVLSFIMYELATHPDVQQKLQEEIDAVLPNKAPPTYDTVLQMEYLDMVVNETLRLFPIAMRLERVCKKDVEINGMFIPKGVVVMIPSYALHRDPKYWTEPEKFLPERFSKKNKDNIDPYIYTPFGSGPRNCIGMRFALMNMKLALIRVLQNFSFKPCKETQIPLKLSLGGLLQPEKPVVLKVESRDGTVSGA
Briefly: CYP inhibition assay (Table S3). It is filed as biochemical.

In data set [3] the target is T3, cytochrome P450 1A2 (Homo sapiens, UniProt P05177).
T3 construct: gene CYP1A2
T3 sequence (P05177 2-516): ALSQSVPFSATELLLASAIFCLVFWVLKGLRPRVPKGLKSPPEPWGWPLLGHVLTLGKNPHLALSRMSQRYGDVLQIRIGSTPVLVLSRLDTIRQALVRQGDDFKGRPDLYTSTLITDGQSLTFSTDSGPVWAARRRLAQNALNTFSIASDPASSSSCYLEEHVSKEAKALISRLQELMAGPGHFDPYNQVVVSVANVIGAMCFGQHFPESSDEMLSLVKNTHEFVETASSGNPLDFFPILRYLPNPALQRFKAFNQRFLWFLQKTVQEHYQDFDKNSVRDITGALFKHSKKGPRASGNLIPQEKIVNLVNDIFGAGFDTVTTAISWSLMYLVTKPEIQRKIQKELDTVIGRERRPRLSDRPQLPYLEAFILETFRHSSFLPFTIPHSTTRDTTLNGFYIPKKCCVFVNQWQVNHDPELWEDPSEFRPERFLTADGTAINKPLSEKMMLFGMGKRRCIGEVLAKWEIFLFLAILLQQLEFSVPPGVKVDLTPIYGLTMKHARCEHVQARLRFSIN
As to the kind of experiment: CYP inhibition assay (Table S3). It is filed as biochemical.

The subject of another data set is T4, S. aureus USA300 Lac.
T4 construct: USA300 LAC
As to the kind of experiment: microbe, parasite or virus in culture. Also noted: broth microdilution MIC, visible growth (turbidity or pellet). The following applies: Staphylococcus aureus, USA300, 20 h. Here is the method: (§1) faecalis, E. faecium. S. epidermidis, S. pyogenes and S. pneumonia strains were cultivated in brain heart infusion medium (BHB, 7.5 g/L brain infusion, 10 g/L heart infusion, 10 g/L casein peptone, 5 g/L NaCl, 2.5 g/L Na2HPO4, 2 g/L glucose). Cell culture Cell culture media and supplements were purchased from Merck. HeLa cells were cultured in Dulbecco’s Modified Eagle Medium (DMEM, high glucose, 4.5 g/L) supplemented with 10% fetal bovine serum (FBS) and 2 mM L-glutamine at 37 °C in a 5% CO2 atmosphere. Accutase (Merck) was used for cell detachment. Minimum inhibitory concentration (MIC) The minimum inhibitory concentration (MIC) was determined by using the broth microdilution assay. 1 µL of compound stock solution in DMSO was pipetted to the wells of row 1 of a sterile flat bottom 96-well plate containing 100 µL growth medium and thoroughly mixed. Subsequently, a 1:1 serial dilution was performed in the growth medium from row 1 to row 10. […] Plates were incubated for 20 h (37 °C, 200 rpm; for Streptococcus pneumoniae DSM30104 and Streptococcus pyogenes ATCC700294: 5% CO2 atmosphere, 37 °C without shaking), and the dilution series were analyzed for microbial growth, indicated by turbidity and/or a pellet. […] MIC values were determined in technical triplicates and confirmed in two or three independent biological experiments. […]

The subject of data set [4] is T5, E. coli K12.
T5 construct: K12
Briefly: microbe, parasite or virus in culture. Details: broth microdilution MIC, visible growth (turbidity or pellet). To be noted: Escherichia coli, K12, 20 h. Here is the method: as §1

Data set [5] concerns the target T6, cytochrome P450 2C9 (Homo sapiens, UniProt P11712).
T6 construct: gene CYP2C9
Briefly: CYP inhibition assay (Table S3). It is filed as biochemical.

The target in data set [6] is T7, cytochrome P450 2D6 (Homo sapiens, UniProt P10635).
T7 construct: gene CYP2D6
T7 sequence (P10635 whole entry): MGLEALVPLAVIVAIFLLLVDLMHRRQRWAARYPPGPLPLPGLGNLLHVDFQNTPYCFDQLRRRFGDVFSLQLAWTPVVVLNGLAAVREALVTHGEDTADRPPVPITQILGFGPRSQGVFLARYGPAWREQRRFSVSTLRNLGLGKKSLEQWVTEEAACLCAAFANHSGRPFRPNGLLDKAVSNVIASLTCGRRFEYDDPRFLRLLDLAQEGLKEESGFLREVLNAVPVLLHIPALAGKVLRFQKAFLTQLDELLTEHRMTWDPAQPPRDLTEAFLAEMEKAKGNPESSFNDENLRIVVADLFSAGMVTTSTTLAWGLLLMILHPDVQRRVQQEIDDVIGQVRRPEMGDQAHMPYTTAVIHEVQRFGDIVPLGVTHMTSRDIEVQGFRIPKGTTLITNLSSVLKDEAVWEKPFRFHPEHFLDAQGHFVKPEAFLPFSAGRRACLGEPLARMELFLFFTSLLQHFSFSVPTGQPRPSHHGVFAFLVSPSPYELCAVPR
Briefly: CYP inhibition assay (Table S3). Format: biochemical.

The test system of another data set is T8, E. coli UTI89.
T8 construct: UTI89
Briefly: microbe, parasite or virus in culture. Details: broth microdilution MIC, visible growth (turbidity or pellet). The following applies: Escherichia coli, UTI89, 20 h. The method, then: (§2) faecalis, E. faecium. S. epidermidis, S. pyogenes and S. pneumonia strains were cultivated in brain heart infusion medium (BHB, 7.5 g/L brain infusion, 10 g/L heart infusion, 10 g/L casein peptone, 5 g/L NaCl, 2.5 g/L Na2HPO4, 2 g/L glucose). Cell culture Cell culture media and supplements were purchased from Merck. HeLa cells were cultured in Dulbecco’s Modified Eagle Medium (DMEM, high glucose, 4.5 g/L) supplemented with 10% fetal bovine serum (FBS) and 2 mM L-glutamine at 37 °C in a 5% CO2 atmosphere. Accutase (Merck) was used for cell detachment. Minimum inhibitory concentration (MIC) The minimum inhibitory concentration (MIC) was determined by using the broth microdilution assay. 1 µL of compound stock solution in DMSO was pipetted to the wells of row 1 of a sterile flat bottom 96-well plate containing 100 µL growth medium and thoroughly mixed. Subsequently, a 1:1 serial dilution was performed in the growth medium from row 1 to row 10. 50 µL of bacterial suspension (1:10,000 dilution of an overnight culture in the respective growth medium) was added to each well containing compound and the growth control (row 11). A sterile control containing only medium was included (row 12). The final volume was 100 µL per well. Plates were incubated for 20 h (37 °C, 200 rpm; […] ATCC700294: 5% CO2 atmosphere, 37 °C without shaking), and the dilution series were analyzed for microbial growth, indicated by turbidity and/or a pellet. The lowest concentration in the dilution series at which no growth of bacteria could be observed was defined as the MIC of the compound. MIC values were determined in technical triplicates and confirmed in two or three independent biological experiments. The [compound left out] library was screened once in technical triplicates. The MIC is reported as mean of technical triplicates. If the MIC varied between biological replicates, concentration ranges are indicated.

The next data set has as its system T9, A. baumannii 5075.
T9 construct: AB5075
Briefly: microbe, parasite or virus in culture. To be noted: Acinetobacter baumannii, 5075, 20 h. Also noted: broth microdilution MIC, visible growth (turbidity or pellet). Here is the method:
as §2

A further data set has as its system T10, B. subtilis 168.
T10 construct: 168
Briefly: microbe, parasite or virus in culture. Also noted: broth microdilution MIC, visible growth (turbidity or pellet). The following applies: Bacillus subtilis, 168, 20 h. The method, then:
as §2

For a further data set, the system named is T11, L. monocytogenes EGD-e.
T11 construct: EGD-e
Briefly: microbe, parasite or virus in culture. To be noted: Listeria monocytogenes, 20 h. Also noted: broth microdilution MIC, visible growth (turbidity or pellet). The method, then: as §2

In the next data set the test system is T12, S. aureus NCTC 8325.
T12 construct: NCTC 8325
As to the kind of experiment: microbe, parasite or virus in culture. Details: broth microdilution MIC, visible growth (turbidity or pellet). The following applies: Staphylococcus aureus, NCTC8325, 20 h. The method, then: as §2

A further data set deals with T13, P. aeruginosa PAO1.
T13 construct: PAO1
As to the kind of experiment: microbe, parasite or virus in culture. Also noted: broth microdilution MIC, visible growth (turbidity or pellet). The following applies: Pseudomonas aeruginosa, PAO1, 20 h. The method, then: as §2

The subject of a further data set is T14, S. pneumoniae DSM 20567.
T14 construct: DSM 20567
Briefly: microbe, parasite or virus in culture. The following applies: Streptococcus pneumoniae, DSM20567, 20 h. Details: broth microdilution MIC, visible growth (turbidity or pellet). Here is the method: as §2

The next data set relates to T15, S. typhimurium LT2.
T15 construct: LT2
As to the kind of experiment: microbe, parasite or virus in culture. Also noted: broth microdilution MIC, visible growth (turbidity or pellet). The following applies: Salmonella enterica, TYPHIMURIUM, 20 h. The method, then: as §2

Another data set concerns T16, S. aureus USA300 LAC J2.
T16 construct: USA300 LAC JE2
As to the kind of experiment: microbe, parasite or virus in culture. Details: broth microdilution MIC, visible growth (turbidity or pellet). The following applies: Staphylococcus aureus, USA300, 20 h. The method, then:
as §2

A further data set concerns T17, A. baumannii ATCC 19606.
T17 construct: ATCC 19606
As to the kind of experiment: microbe, parasite or virus in culture. Details: broth microdilution MIC, visible growth (turbidity or pellet). The following applies: Acinetobacter baumannii, ATCC19606, 20 h. Here is the method:
as §2

The next data set deals with T18, K. pneumoniae DSM 30104.
T18 construct: DSM 30104
Briefly: microbe, parasite or virus in culture. Also noted: broth microdilution MIC, visible growth (turbidity or pellet). To be noted: Klebsiella pneumoniae, DSM30104, 20 h. The method, then:
as §2

The subject of the next data set is T19, S. epidermidis RP62 A.
T19 construct: RP62A
As to the kind of experiment: microbe, parasite or virus in culture. To be noted: Staphylococcus epidermidis, RP62A, 20 h. Details: broth microdilution MIC, visible growth (turbidity or pellet). Here is the method:
as §2

A further data set deals with T20, S. pyogenes ATCC 700294.
T20 construct: ATCC 700294
Briefly: microbe, parasite or virus in culture. Also noted: broth microdilution MIC, visible growth (turbidity or pellet). The following applies: Streptococcus pyogenes, ATCC700294, 20 h. The method, then:
as §2

The subject of another data set is T21, E. faecium DSM17050.
T21 construct: DSM 17050
Briefly: microbe, parasite or virus in culture. To be noted: Enterococcus faecium, DSM17050, 20 h. Also noted: broth microdilution MIC, visible growth (turbidity or pellet). Here is the method: as §2

Another data set deals with T22, E. faecalis V583.
T22 construct: V583
As to the kind of experiment: microbe, parasite or virus in culture. Also noted: broth microdilution MIC, visible growth (turbidity or pellet). The following applies: Enterococcus faecalis, V583, 20 h. Here is the method: as §2

Data set [7] relates to T5, E. coli K12. Briefly: microbe, parasite or virus in culture. Details: broth microdilution MIC, visible growth (turbidity or pellet). To be noted: Escherichia coli, K12, 20 h. Here is the method:
as §2
This is another data set of the same source.

Data set [8] has as its target T7, cytochrome P450 2D6. Briefly: biochemical. Also noted: CYP inhibition in human liver microsomes, conversion of isoform-specific substrates. To be noted: substrate dextromethorphan; liver microsomes. Here is the method:
(§3) To cover a broad range of structurally diverse compounds, we gathered commercially available primary, secondary, tertiary, vinyl and aromatic [compound left out] for antibacterial testing (Table S1 ^†). […] The minimum inhibitory concentration (MIC) of forty-two compounds was determined in Gram-positive Staphylococcus aureus and Gram-negative Escherichia coli cells up to 50 μM. […] The compound was tested against a panel of Gram-positive and Gram-negative pathogens. Although no antibiotic effects against Gram-negative strains were observed, Bacillus subtilis, Listeria monocytogenes, Staphylococcus epidermidis, and Streptococcus pneumoniae could be inhibited at low micromolar concentrations of I16 (Table S2 ^†). […] This was further corroborated by evaluation I16 in four different human cytochrome P450 enzymes (CYPs).
On the technique in general: Liver microsomes are vesicles of endoplasmic reticulum, rich in cytochrome P450 enzymes.

The target of data set [9] is T2, cytochrome P450 3A4. As to the kind of experiment: biochemical. Details: CYP inhibition in human liver microsomes, conversion of isoform-specific substrates. To be noted: substrate midazolam; liver microsomes. Here is the method:
as §3

Data set [10] addresses T3, cytochrome P450 1A2. As to the kind of experiment: biochemical. Details: CYP inhibition in human liver microsomes, conversion of isoform-specific substrates. To be noted: substrate phenacetin; liver microsomes. Here is the method:
as §3

Data set [11] addresses T6, cytochrome P450 2C9. Briefly: biochemical. Also noted: CYP inhibition in human liver microsomes, conversion of isoform-specific substrates. To be noted: substrate diclofenac; liver microsomes. Here is the method:
as §3

Data set [12] concerns the target T1, glutamine–fructose-6-phosphate aminotransferase (GlmS). As to the kind of experiment: GDH-coupled glutaminase assay (turnover reduced to about […] at […]). Format: biochemical. The following applies: read-out: % residual turnover at 100 μM.

T1 sequence (Q2FWA0 entry or part of it): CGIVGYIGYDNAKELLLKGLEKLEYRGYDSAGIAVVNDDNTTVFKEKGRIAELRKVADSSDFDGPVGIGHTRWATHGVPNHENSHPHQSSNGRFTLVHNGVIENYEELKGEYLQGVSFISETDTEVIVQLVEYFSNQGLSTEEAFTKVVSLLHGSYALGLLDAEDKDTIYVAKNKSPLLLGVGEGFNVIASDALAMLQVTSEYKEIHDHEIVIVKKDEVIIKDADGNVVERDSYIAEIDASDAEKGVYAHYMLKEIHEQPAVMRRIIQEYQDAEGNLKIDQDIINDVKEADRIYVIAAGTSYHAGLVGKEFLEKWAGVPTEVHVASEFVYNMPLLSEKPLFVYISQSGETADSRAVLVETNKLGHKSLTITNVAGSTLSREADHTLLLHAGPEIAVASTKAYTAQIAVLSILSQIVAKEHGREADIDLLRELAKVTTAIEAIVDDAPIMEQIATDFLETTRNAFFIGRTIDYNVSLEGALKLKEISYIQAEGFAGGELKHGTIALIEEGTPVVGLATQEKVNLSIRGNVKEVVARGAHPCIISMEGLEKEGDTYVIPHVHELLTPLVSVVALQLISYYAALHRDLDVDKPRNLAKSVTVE
T6 sequence (P11712 whole entry): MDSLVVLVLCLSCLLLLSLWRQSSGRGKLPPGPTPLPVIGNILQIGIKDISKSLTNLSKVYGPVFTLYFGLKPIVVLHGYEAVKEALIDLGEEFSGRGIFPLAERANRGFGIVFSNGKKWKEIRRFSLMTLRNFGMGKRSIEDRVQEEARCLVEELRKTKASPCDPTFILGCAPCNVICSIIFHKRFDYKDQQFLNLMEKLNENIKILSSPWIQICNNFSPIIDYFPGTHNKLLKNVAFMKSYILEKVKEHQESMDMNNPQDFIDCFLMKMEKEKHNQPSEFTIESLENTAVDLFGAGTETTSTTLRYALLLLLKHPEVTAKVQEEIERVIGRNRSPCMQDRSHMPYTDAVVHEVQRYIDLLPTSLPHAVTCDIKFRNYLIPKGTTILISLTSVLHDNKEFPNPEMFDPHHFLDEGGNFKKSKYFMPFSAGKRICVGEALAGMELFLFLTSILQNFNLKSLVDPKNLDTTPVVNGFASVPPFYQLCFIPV

In the case of `[C-]#[N+]C(c1ccc(F)cc1Cl)S(=O)(=O)c1ccc(C)cc1` (stereo not shown) [I16], in data set [1], the “GDH-coupled glutaminase assay; intact protein MS (+27.5 Da, truncated adduct); c” value is “glutamate release rate decreased concentration-dependently by I16, corroborating its interaction with the active site cysteine”. In addition, the “CYP inhibition assay (Table S3)” value at cytochrome P450 3A4 [2] is “I16 inhibited all tested CYP isoforms (2C9, 2D6, 1A2, and 3A4) at nanomolar concentrations”; on cytochrome P450 1A2 [3] it was “I16 inhibited all tested CYP isoforms (2C9, 2D6, 1A2, and 3A4) at nanomolar concentrations”; at cytochrome P450 2C9 [5] it was “I16 inhibited all tested CYP isoforms (2C9, 2D6, 1A2, and 3A4) at nanomolar concentrations”; at cytochrome P450 2D6 [6], “I16 inhibited all tested CYP isoforms (2C9, 2D6, 1A2, and 3A4) at nanomolar concentrations”. Also, the MIC against S. aureus USA300 Lac was 1.56 µM (≈ 0.505 µg/mL); in the data set on E. coli K12 [4], above 50 µM; in the data set with E. coli UTI89 it was above 100 µM; in the data set on A. baumannii 5075 it was above 100 µM; in the data set with B. subtilis 168, 12.5 µM (≈ 4.05 µg/mL); against L. monocytogenes EGD-e, 1 µM (≈ 0.324 µg/mL). Besides, the MIC in the data set with S. aureus NCTC 8325 is 0.78 to 1.56 µM (≈ 0.253 to 0.505 µg/mL); against P. aeruginosa PAO1 it was above 100 µM; against S. pneumoniae DSM 20567, 1.56 µM (≈ 0.505 µg/mL); in the data set on S. typhimurium LT2, above 100 µM; against S. aureus USA300 LAC J2, 1.56 µM (≈ 0.505 µg/mL); in the data set with A. baumannii ATCC 19606, above 100 µM. Moreover, the MIC with K. pneumoniae DSM 30104 is above 100 µM; in the data set with S. epidermidis RP62 A, 1 µM (≈ 0.324 µg/mL); in the data set with S. pyogenes ATCC 700294, above 100 µM; against E. faecium DSM17050, above 100 µM; with E. faecalis V583, above 100 µM; with E. coli K12 [7], above 100 µM. For the same compound, the concentration for half-maximal inhibition (IC50) against cytochrome P450 2D6 [8] turned out to be 0.0593 ± 0.02 µM; on cytochrome P450 3A4 [9], 0.0261 ± 0.008 µM; against cytochrome P450 1A2 [10], 0.0608 ± 0.017 µM; against cytochrome P450 2C9 [11], 0.144 ± 0.053 µM.

Take `NC(=O)CI` [IA, iodoacetamide]: the remaining activity at 100 µM in data set [12] was around 35%.

The IC50 is the concentration needed to halve the response being measured.
